This note sets out measurements from PubChem BioAssay (NCI).

Molecules are shown by their SMILES.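 Interpolation was linear, between the two tested concentrations surrounding the appropriate level; five concentrations were tested over 48 hours in 96-well plates. At the GI50, growth is halved. Definition used: TGI = concentration required for complete inhibition of growth.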

One assay has as its system SF-295 CNS. Briefly: NCI-60 cell line screen, 48 h.
`CC1CCCc2c1nn(C(=O)/C=C(\N)c1ccccc1)c2N` (stereo not drawn): the GI50 is 30.6 µM and the TGI is > 100 µM.

For the compound `CCCCCCCCCCCCCC(=O)OCC1OC(=O)CC1O` (stereo not drawn), the TGI is > 100 µM.

In the case of `Cc1ccc2c(c1)Sc1ccc(N=NN(C)C)cc1N2C`, the TGI is > 100 µM.

Take `COC1OC(C)C(OCc2ccccc2)C(OS(=O)(=O)c2ccc(C)cc2)C1OS(=O)(=O)c1ccc(C)cc1` (stereo not drawn): the TGI was > 100 µM.

Turning to `Cc1ncc(C(=O)Nc2ccc(CN3CCN(C)CC3)c(C(F)(F)F)c2)cc1C#Cc1cnc(NC2CC2)c2ncccc12`, the GI50 was 0.747 µM and the TGI stood at 1.68 µM.

Consider `Cc1ccc2nc3c(Cl)c(C)c(=O)cc-3sc2c1`, for which the TGI was > 100 µM.

For the compound `O=C/C(=C(/Cl)c1ccc(O)cc1)c1ccccc1`, the TGI is > 72.2 µM.

The compound `C=CCO/N=C/c1cc(NC(=S)c2ccoc2C)ccc1Cl` showed a TGI of 26.6 µM.

`CCCCCCCCCCN=C(c1ccc(N(C)C)cc1)c1ccc(N(C)C)cc1`: the GI50 is 0.63 µM and the TGI was determined as 13.7 µM.

In a further assay the test system is HCT-116 colon. Put plainly: NCI-60 cell line screen, 48 h.
As to `CC1CCCc2c1nn(C(=O)/C=C(\N)c1ccccc1)c2N` (stereo not drawn), the GI50 is 5.55 µM and the TGI turned out to be 26.3 µM.

For `CCCCCCCCCCCCCC(=O)OCC1OC(=O)CC1O` (stereo not drawn), the TGI was > 100 µM.

For `Cc1ccc2c(c1)Sc1ccc(N=NN(C)C)cc1N2C`, the TGI is > 100 µM.

Take `COC1OC(C)C(OCc2ccccc2)C(OS(=O)(=O)c2ccc(C)cc2)C1OS(=O)(=O)c1ccc(C)cc1` (stereo not drawn): the TGI is > 100 µM.

For the compound `Cc1ncc(C(=O)Nc2ccc(CN3CCN(C)CC3)c(C(F)(F)F)c2)cc1C#Cc1cnc(NC2CC2)c2ncccc12`, the GI50 is 0.578 µM and the TGI was 1.07 µM.

In the case of `Cc1ccc2nc3c(Cl)c(C)c(=O)cc-3sc2c1`, the GI50 was 39.6 µM and the TGI was > 100 µM.

On to `O=C/C(=C(/Cl)c1ccc(O)cc1)c1ccccc1`, for which the TGI was 37.2 µM.

For the compound `C=CCO/N=C/c1cc(NC(=S)c2ccoc2C)ccc1Cl`, the TGI was > 100 µM.

For `CCCCCCCCCCN=C(c1ccc(N(C)C)cc1)c1ccc(N(C)C)cc1`, the GI50 was 0.423 µM and the TGI stood at 32.9 µM.

Another assay relates to NCI-H23 lung. Briefly: NCI-60 cell line screen, 48 h.
For the compound `CC1CCCc2c1nn(C(=O)/C=C(\N)c1ccccc1)c2N` (stereo not drawn), the GI50 is 5.5 µM and the TGI was 92.9 µM.

Consider `CCCCCCCCCCCCCC(=O)OCC1OC(=O)CC1O` (stereo not drawn), for which the TGI was > 100 µM.

Turning to `Cc1ccc2c(c1)Sc1ccc(N=NN(C)C)cc1N2C`, the TGI was > 100 µM.

Consider `COC1OC(C)C(OCc2ccccc2)C(OS(=O)(=O)c2ccc(C)cc2)C1OS(=O)(=O)c1ccc(C)cc1` (stereo not drawn), for which the TGI was > 100 µM.

As for `Cc1ncc(C(=O)Nc2ccc(CN3CCN(C)CC3)c(C(F)(F)F)c2)cc1C#Cc1cnc(NC2CC2)c2ncccc12`, the GI50 is 0.646 µM and the TGI was found to be 1.36 µM.

With `Cc1ccc2nc3c(Cl)c(C)c(=O)cc-3sc2c1`, the GI50 is 23.7 µM and the TGI is > 100 µM.

In the case of `O=C/C(=C(/Cl)c1ccc(O)cc1)c1ccccc1`, the TGI amounted to 55.1 µM.

Regarding `C=CCO/N=C/c1cc(NC(=S)c2ccoc2C)ccc1Cl`, the TGI worked out at 26.7 µM.

Take `CCCCCCCCCCN=C(c1ccc(N(C)C)cc1)c1ccc(N(C)C)cc1`: the GI50 was 1.58 µM and the TGI is > 75.4 µM.

Another assay has as its system SK-MEL-5 melanoma. Briefly: NCI-60 cell line screen, 48 h.
Consider `CC1CCCc2c1nn(C(=O)/C=C(\N)c1ccccc1)c2N` (stereo not drawn), for which the GI50 was 4.35 µM and the TGI was 45.7 µM.

`CCCCCCCCCCCCCC(=O)OCC1OC(=O)CC1O` (stereo not drawn): the TGI is > 100 µM.

For `Cc1ccc2c(c1)Sc1ccc(N=NN(C)C)cc1N2C`, the TGI was > 100 µM.

Take `COC1OC(C)C(OCc2ccccc2)C(OS(=O)(=O)c2ccc(C)cc2)C1OS(=O)(=O)c1ccc(C)cc1` (stereo not drawn): the TGI was > 100 µM.

As to `Cc1ncc(C(=O)Nc2ccc(CN3CCN(C)CC3)c(C(F)(F)F)c2)cc1C#Cc1cnc(NC2CC2)c2ncccc12`, the GI50 is 0.546 µM and the TGI was found to be 1.04 µM.

For the compound `Cc1ccc2nc3c(Cl)c(C)c(=O)cc-3sc2c1`, the TGI is > 100 µM.

Compound `O=C/C(=C(/Cl)c1ccc(O)cc1)c1ccccc1` returned a TGI of 48.9 µM.

Compound `C=CCO/N=C/c1cc(NC(=S)c2ccoc2C)ccc1Cl` gave a TGI of 27.6 µM.

Consider `CCCCCCCCCCN=C(c1ccc(N(C)C)cc1)c1ccc(N(C)C)cc1`, for which the GI50 was 0.67 µM and the TGI was found to be 18.4 µM.

For the next assay, the system named is 786-0 renal. Briefly: NCI-60 cell line screen, 48 h.
Regarding `CC1CCCc2c1nn(C(=O)/C=C(\N)c1ccccc1)c2N` (stereo not drawn), the GI50 was 16.2 µM and the TGI was > 100 µM.

For the compound `CCCCCCCCCCCCCC(=O)OCC1OC(=O)CC1O` (stereo not drawn), the TGI is > 100 µM.

Take `Cc1ccc2c(c1)Sc1ccc(N=NN(C)C)cc1N2C`: the TGI is > 100 µM.

Regarding `COC1OC(C)C(OCc2ccccc2)C(OS(=O)(=O)c2ccc(C)cc2)C1OS(=O)(=O)c1ccc(C)cc1` (stereo not drawn), the TGI was > 100 µM.

For the compound `Cc1ncc(C(=O)Nc2ccc(CN3CCN(C)CC3)c(C(F)(F)F)c2)cc1C#Cc1cnc(NC2CC2)c2ncccc12`, the GI50 is 0.65 µM and the TGI is 1.16 µM.

As for `Cc1ccc2nc3c(Cl)c(C)c(=O)cc-3sc2c1`, the GI50 is 96.3 µM and the TGI is > 100 µM.

Turning to `O=C/C(=C(/Cl)c1ccc(O)cc1)c1ccccc1`, the TGI is > 66.3 µM.

Take `C=CCO/N=C/c1cc(NC(=S)c2ccoc2C)ccc1Cl`: the TGI was > 100 µM.

On to `CCCCCCCCCCN=C(c1ccc(N(C)C)cc1)c1ccc(N(C)C)cc1`, for which the GI50 is 3.61 µM and the TGI worked out at 36.8 µM.
